In patent publication US20140262858A1, “PACKAGING FOR ALITRETINOIN” (RANBAXY LABORATORIES LIMITED, priority 2011, published 2014):
Several values for one entry are separate records, joined by “and”; a condition that tells them apart may be missing. Equal values may be shown once.

Key:
[1] = in the presence of oxygen; cited from earlier work
[2] = Stability study of alitretinoin at 25±2° C./60±5% RH in vacuum-sealed pack in the presence of oxygen absorber (Stabilox) and silica gel desiccant; assay type: physicochemical; design: 4-Hydroxy alitretinoin impurity / 5,6-Epoxy alitretinoin impurity / Total related substances / 4-Oxo-alitretinoin impurity: unit not given here; conditions: for 4-Hydroxy alitretinoin impurity / 4-Oxo-alitretinoin impurity / 5,6-Epoxy alitretinoin impurity / Total related substances: with oxygen absorber and silica gel desiccant
Description: (§1) Stability studies of alitretinoin were conducted by loading alitretinoin samples at various stability conditions, for example, at 25±2° C./60±5% relative humidity (RH) and 40±2° C./75±5% RH in the absence or presence of an oxygen absorber and a silica desiccant for 1 month, 2 months, 3 months, or 6 months. The stability studies were performed on a stability incubator (for accelerated stability studies, Hotpack was used and for real time stability studies, NuAire® was used). The degradation products were identified using an Agilent® 1100 series HPLC system.
Alitretinoin was packed in a LDPE bag. The bag was twisted and tied with a plastic fastener under nitrogen. The LDPE bag was placed into a middle bag of polyester/LDPE along with an oxygen absorber. A vacuum was applied to the middle bag and then it was heat sealed. The sealed middle bag was packed into a polyester/aluminum/polyester/LDPE bag along with silica gel as a desiccant. Vacuum was applied to this bag and it was then heat sealed. The vacuum-sealed pack was loaded on stability at 25±2° C. and 60±5% RH.

[3] = Stability study of alitretinoin in vacuum-sealed pack in the absence of oxygen absorber and silica gel desiccant (HPLC impurities); assay type: physicochemical; conditions: Initial; no oxygen absorber, no silica gel desiccant
Description: as §1
Alitretinoin was packed in a LDPE bag. The bag was twisted and tied with a plastic fastener under nitrogen. The LDPE bag was placed into a middle bag of polyester/LDPE and vacuum was applied to the middle bag and then it was heat sealed. The sealed middle bag was packed into a polyester/aluminum/polyester/LDPE bag. Vacuum was applied to this bag and then it was heat sealed. The vacuum-sealed pack was loaded on stability at stations 40±2° C. and 75±5% RH (accelerated) and 25±2° C. and 60±5% RH.

[4] = Stability study of alitretinoin at 40±2° C./75±5% RH in vacuum-sealed pack in the presence of oxygen absorber (Stabilox) and silica gel desiccant; assay type: physicochemical; design: 4-Hydroxy alitretinoin impurity / 5,6-Epoxy alitretinoin impurity / Total related substances / 4-Oxo-alitretinoin impurity: unit not given here; conditions: for 4-Oxo-alitretinoin impurity / 5,6-Epoxy alitretinoin impurity / Total related substances / 4-Hydroxy alitretinoin impurity: with oxygen absorber and silica gel desiccant
Description: as §1
Alitretinoin was packed in a LDPE bag; the bag was twisted and tied with a plastic fastener under nitrogen. It was placed into a middle bag of polyester/LDPE along with an oxygen absorber. Vacuum was applied to the middle bag and then it was heat sealed. This sealed middle bag was packed into a polyester/aluminum/polyester/LDPE bag along with silica gel as a desiccant. Vacuum was applied to this bag and then it was heat sealed. The vacuum-sealed pack was loaded on stability at 40±2° C. and 75±5% RH.

## CC1=C(/C=C/C(C)=C\C=C\C(C)=C\C(=O)O)C(C)(C)CCC1 [Alitretinoin, (2E,4E,6Z,8E)-3,7-dimethyl-9-(2,6,6-trimethyl-1-cyclohexenyl)-2,4,6,8-nonatraenoic acid]
[1]
  Decomposition: decomposition was extensive
[2]; 3M/25 ± 2° C./60 ± 5% RH
  4-Hydroxy alitretinoin impurity: 0.003
  4-Oxo-alitretinoin impurity: 0.003 and 0.002
  5,6-Epoxy alitretinoin impurity: 0.008 and 0.005
  Total related substances: 0.198 and 0.195 and 0.179
[2]; 6M/25 ± 2° C./60 ± 5% RH
  4-Hydroxy alitretinoin impurity: 0.002 and 0.003
  4-Oxo-alitretinoin impurity: 0.004 and 0.003
  5,6-Epoxy alitretinoin impurity: 0.006 and 0.008 and 0.005
  Total related substances: 0.183 and 0.193 and 0.167
[2]; 25±2° C./60±5% RH (Table 2), in the presence of an oxygen absorber and a silica gel desiccant
  Change in oxidative impurities on storage: no increase in oxidative impurities
[2]; Initial
  4-Hydroxy alitretinoin impurity: 0.002
  4-Oxo-alitretinoin impurity: 0.002 and 0.003
  5,6-Epoxy alitretinoin impurity: 0.006 and 0.009
  Total related substances: 0.165 and 0.189 and 0.173
[3]
  Total related substances: 0.403 and 0.411 and 0.351
[4]; 1M/40 ± 2° C./75 ± 5% RH
  4-Oxo-alitretinoin impurity: 0.004 and 0.003
  5,6-Epoxy alitretinoin impurity: 0.008 and 0.006
  Total related substances: 0.173 and 0.182 and 0.160
[4]; 2M/40 ± 2° C./75 ± 5% RH
  4-Hydroxy alitretinoin impurity: 0.003 and 0.002 and 0.004
  4-Oxo-alitretinoin impurity: 0.003 and 0.002
  5,6-Epoxy alitretinoin impurity: 0.010 and 0.008 and 0.007
  Total related substances: 0.191 and 0.192 and 0.180
[4]; 3M/40 ± 2° C./75 ± 5% RH
  4-Hydroxy alitretinoin impurity: 0.003 and 0.002
  4-Oxo-alitretinoin impurity: 0.003 and 0.004
  5,6-Epoxy alitretinoin impurity: 0.008 and 0.010 and 0.006
  Total related substances: 0.192 and 0.205 and 0.177
[4]; 6M/40 ± 2° C./75 ± 5% RH
  4-Hydroxy alitretinoin impurity: 0.002
  4-Oxo-alitretinoin impurity: 0.003 and 0.004
  5,6-Epoxy alitretinoin impurity: 0.006 and 0.007
  Total related substances: 0.175 and 0.188 and 0.167
[4]; 40±2° C./75±5% RH (Table 3), in the presence of an oxygen absorber and a silica gel desiccant
  Change in oxidative impurities on storage: no increase in oxidative impurities
[4]; Initial
  4-Hydroxy alitretinoin impurity: 0.002
  4-Oxo-alitretinoin impurity: 0.002 and 0.003
  5,6-Epoxy alitretinoin impurity: 0.006 and 0.009
  Total related substances: 0.165 and 0.189 and 0.173
